Results as given in US20050136445A1, “Recombinant DNA vector, recombinant bio-luminescent bacterium and method for detecting bio-inhibitory substances using same” (Industrial Technology Research Institute, priority 2003, published 2005).

The compounds below were run on recombinant luminescent bacteria, pLWY-fabG (in Serratia marcescens) and pLWY-sh1A (in Serratia marcescens) (assay: Luminosity (RLU) of recombinant bio-luminescent bacteria after mixing with test sample). Settings: 200 μl bacterial liquid + 20 μl test sample, react for 15 minutes, luminosity detected for 20 sec; expressed as percentage of purified water control (100%).
Type: cell-based
Excerpt: The technique developed in this invention that allows speedy detection of bio-inhibitory substances in wastewater is based on the principle that such substance poses a negative effect on the luminescent ability of recombinant luminescent bacteria, pLWY-fabG (in Serratia marcescens) and pLWY-sh1A (in Serratia marcescens) as provided herein. The detailed process for detecting bio-inhibitory substances in wastewater using the foregoing recombinant bio-luminescent bacteria are described below: 1. Culture the constructed foregoing recombinant bio-luminescent bacteria for 18-24 hours (O.D. >2); 2. Dilute the bacterial liquid at 1:100 with fresh LB broth the next day; 3. Shake culture at 225 rpm under 30° C. for one hour; 4. Mix 200 μl of bacterial liquid with 20 μl of test sample; mix well and let them react for 15 minutes; and 5. Use luminometer Berthold Lumat LB9507 to detect luminosity for 20 sec and the results are shown in relative light unit (RLU).
To preclude environmental error, each batch of test samples must include purified water to be treated as a positive control with RLU set as 100% for a standard reference. Given that the RLU of negative control (LB broth) is 0, it was not measured. The test results of samples are expressed as a percentage of the positive control. In this test, the amount of bacterial liquid used was 200 μl and that of test sample was 20 μl. Therefore the concentration of test sample was diluted to 1/11 of the original liquid at the time of testing. The concentrations of samples shown in the table are the detected concentration.
With CC#N [acetonitrile] the “luminosity (RLU value) of the recombinant bio-luminescent bacterium versus concentration of the bio-inhibitory substance” value was “the higher is the acetonitrile concentration, the lower is the RLU value”. In the case of Oc1ccccc1 [phenol], the “luminosity (RLU value) of the recombinant bio-luminescent bacterium versus concentration of the bio-inhibitory substance” value is reported as “the higher is the phenol concentration, the lower is the RLU value”. With [Zn+2] [zinc ion] the “luminosity (RLU value) of the recombinant bio-luminescent bacterium versus concentration of the bio-inhibitory substance” value was “the higher is the zinc ion concentration, the lower is the RLU value”.
